biological target: T1, Jak3 enzyme (aa 811-1103) (Homo sapiens, UniProt P52333); test: In vitro Jak3 kinase activity measured by time-resolved fluorescence resonance energy transfer (trFRET); type: biochemical; settings: ATP 0.001 mM
T1 construct: Jak3 enzyme (aa 811-1103); expressed in SF9 cells as a GST fusion; GST; made in house; host or cells: SF9 insect cells
Method: In Vitro Jak3 Kinase Activity Measured by Time-Resolved Fluorescence Resonance Energy Transfer (trFRET)
Varying concentrations of inhibitor were added to an assay well containing: Jak3 enzyme (aa 811-1103; expressed in SF9 cells as a GST fusion and purified by glutathione affinity chromatography; 3 nM), peptide substrate (biotin-TYR2, Sequence: Biotin-(Ahx)-AEEEYFFLFA-amide; 2 μM), MOPSO pH 6.5 (50 mM), MgCl2 (10 mM), MnCl2 (2 mM), DTT (2.5 mM), BSA (0.01% w/v), Na3VO4 (0.1 mM) and ATP (0.001 mM). After about 60 min incubation at rt, the reaction was quenched by addition of EDTA (final concentration: 100 mM) and developed by addition of revelation reagents (final approximate concentrations: 30 mM HEPES pH 7.0, 0.06% BSA, 0.006% Tween-20, 0.24 M KF, 80 ng/mL PT66K (europium labeled anti-phosphotyrosine antibody cat #61T66KLB Cisbio, Bedford, Mass.) and 0.8 μg/mL SAXL (Phycolink streptavidin-allophycocyanin acceptor, cat #PJ52S, Prozyme, San Leandro, Calif.). The developed reaction was incubated in the dark either at about 4° C., for about 14 h or for about 60 min at rt, then read via a time-resolved fluorescence detector (Rubystar, BMG) using a 337 nm laser for excitation and emission wavelength of 665 nm. Within the linear range of the assay, the observed signal at 665 nm is directly related to phosphorylated product and used to calculate the IC50 values.

T1 sequence (P52333 811-1103): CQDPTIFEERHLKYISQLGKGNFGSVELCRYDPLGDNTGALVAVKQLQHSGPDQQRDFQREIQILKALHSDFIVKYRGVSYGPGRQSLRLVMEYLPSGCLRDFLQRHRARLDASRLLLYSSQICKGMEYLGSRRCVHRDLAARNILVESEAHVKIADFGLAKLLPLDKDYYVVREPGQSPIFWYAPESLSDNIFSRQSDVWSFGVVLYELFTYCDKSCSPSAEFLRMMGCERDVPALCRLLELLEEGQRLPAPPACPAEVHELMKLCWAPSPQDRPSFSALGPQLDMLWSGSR

IC50 [µM]	SMILES
> 10	CC[C@@H]1CN(C(=O)NC2CCC2)C[C@@H]1c1cnc2cnc3[nH]ccc3n12 [Example #17, (3S,4R)—N-cyclobutyl-3-ethyl-4-(3H-imidazo[1,2-a]pyrrolo[2,3-e]pyrazin-8-yl)pyrrolidine-1-carboxamide]
1 to 10	C[C@@H]1C[C@@H](CCC#N)C[C@@H]1n1nnc2cnc3[nH]ccc3c21 [Example #11, 3-((1R,3R,4S)-3-methyl-4-(pyrrolo[2,3-b][1,2,3]triazolo[4,5-d]pyridin-1(6H)-yl)cyclopentyl)propanenitrile]
> 10	C[C@@H]1C[C@H](N2CCC(C#N)CC2)C[C@@H]1c1cnc2cnc3[nH]ccc3n12 [Example #5, 1-((1S,3S,4R)-3-(3H-imidazo[1,2-a]pyrrolo[2,3-e]pyrazin-8-yl)-4-methylcyclopentyl)piperidine-4-carbonitrile]
> 10	C[C@@H]1C[C@H](NC(=O)c2cccnn2)C[C@@H]1c1cnc2cnc3[nH]ccc3n12 [Example #2, N-((1S,3S,4R)-3-(3H-imidazo[1,2-a]pyrrolo[2,3-e]pyrazin-8-yl)-4-methylcyclopentyl)pyridazine-3-carboxamide]
1 to 10	CC[C@@H]1C[C@H](CCC#N)C[C@@H]1c1nnc2cnc3[nH]ccc3n12 [Example #22, 3-((1S,3R,4S)-3-ethyl-4-(6H-pyrrolo[2,3-e][1,2,4]triazolo[4,3-a]pyrazin-1-yl)cyclopentyl)propanenitrile]

same assay, conditions: ATP 0.001 mM, Table B

IC50 [µM]	SMILES
1 to 10	CC[C@@H]1C[C@H](NC(=O)Cc2cc(C)no2)C[C@@H]1c1nnc2cnc3[nH]ccc3n12 [compound 55, N-((1S,3R,4S)-3-ethyl-4-(6H-pyrrolo[2,3-e][1,2,4]triazolo[4,3-a]pyrazin-1-yl)cyclopentyl)-2-(3-methylisoxazol-5-yl)acetamide]
1 to 10	CC[C@@H]1C[C@H](NC(=O)c2cnoc2C2CC2)C[C@@H]1c1nnc2cnc3[nH]ccc3n12 [compound 66, 5-cyclopropyl-N-((1S,3R,4S)-3-ethyl-4-(6H-pyrrolo[2,3-e][1,2,4]triazolo[4,3-a]pyrazin-1-yl)cyclopentyl)isoxazole-4-carboxamide]
1 to 10	CC[C@@H]1C[C@H](NC(=O)CNC(=O)c2cnoc2C)C[C@@H]1c1nnc2cnc3[nH]ccc3n12 [compound 38, N-(2-((1S,3R,4S)-3-ethyl-4-(6H-pyrrolo[2,3-e][1,2,4]triazolo[4,3-a]pyrazin-1-yl)cyclopentylamino)-2-oxoethyl)-5-methylisoxazole-4-carboxamide]
1 to 10	CC[C@@H]1C[C@H](NC(=O)c2oc3ccccc3c2C)C[C@@H]1c1nnc2cnc3[nH]ccc3n12 [compound 43, N-((1S,3R,4S)-3-ethyl-4-(6H-pyrrolo[2,3-e][1,2,4]triazolo[4,3-a]pyrazin-1-yl)cyclopentyl)-3-methylbenzofuran-2-carboxamide]
< 1	CC[C@@H]1C[C@H](NC(=O)CCc2ccco2)C[C@@H]1c1nnc2cnc3[nH]ccc3n12 [compound 53, N-((1S,3R,4S)-3-ethyl-4-(6H-pyrrolo[2,3-e][1,2,4]triazolo[4,3-a]pyrazin-1-yl)cyclopentyl)-3-(furan-2-yl)propanamide]
1 to 10	CC[C@@H]1C[C@H](NC(=O)CCC2CCCCC2)C[C@@H]1c1nnc2cnc3[nH]ccc3n12 [compound 77, 3-cyclohexyl-N-((1S,3R,4S)-3-ethyl-4-(6H-pyrrolo[2,3-e][1,2,4]triazolo[4,3-a]pyrazin-1-yl)cyclopentyl)propanamide]
1 to 10	CC[C@@H]1C[C@H](NC(=O)c2ccno2)C[C@@H]1c1nnc2cnc3[nH]ccc3n12 [compound 50, N-((1S,3R,4S)-3-ethyl-4-(6H-pyrrolo[2,3-e][1,2,4]triazolo[4,3-a]pyrazin-1-yl)cyclopentyl)isoxazole-5-carboxamide]
1 to 10	CC[C@@H]1C[C@H](NC(=O)CCC2NC(=O)NC2=O)C[C@@H]1c1nnc2cnc3[nH]ccc3n12 (stereo partly drawn) [compound 28, 3-(2,5-dioxoimidazolidin-4-yl)-N-((1S,3R,4S)-3-ethyl-4-(6H-pyrrolo[2,3-e][1,2,4]triazolo[4,3-a]pyrazin-1-yl)cyclopentyl)propanamide]
